This note sets out measurements from patent publication US8759339B2, “Pyrrolo[2,1-c][1,4]naphthodiazepine linked piperazine compounds and a process for the preparation thereof” (Council of Scientific & Industrial Research, priority 2011, dated 2014).

Like-named read-outs stand apart in the source and are kept apart here.

The subject of series [1] is NCIH460 large cell lung cancer cell line. Kind of series: In vitro anticancer activity, MTT assay. The format is cell-based, human. Conditions: for IC50: large cell lung cancer cell line, MTT, 48 h continuous drug exposure; for in-vitro cytotoxicity in large cell lung cancer cell line (NCIH460): result in words. The protocol: (§1) In vitro biological activity studies were carried out at the pharmacology division, IICT, Hyderabad. The compounds were evaluated for in vitro anticancer activity against eight tumour cell lines derived from […] cancer types (breast, lung, liver, skeletal, kidney, prostrate, small intestine) as shown in Table 2. For each compound, dose response curves for each cell line were measured at a minimum of five concentrations at 10 fold dilutions. A protocol of 48 h continuous drug exposure was used and a MTT assay was used to estimate cell viability or growth. The concentration causing 50% inhibition (IC50) compared with the control was calculated. Some of the compounds have been evaluated for their in vitro cytotoxicity in eight cell lines from seven human cancer types. The results are expressed as IC50 determined relative to that of untreated control cells (Table-2).
A general note: Formazan colour is commonly taken as a measure of viable cells.

In series [2] the test system is MCF7 breast cancer cell line. Kind of series: In vitro anticancer activity, MTT assay. The format is cell-based, human. Conditions: for IC50: breast cancer cell line, MTT, 48 h continuous drug exposure; for in-vitro cytotoxicity in breast cancer cell line (MCF-7): result in words. The protocol: as §1
For series [3], the system named is HEPG2 liver cancer cell line. Kind of series: In vitro anticancer activity, MTT assay. The note with it: for in-vitro cytotoxicity in liver cancer cell line (HEPG2): result in words. In kind it is cell-based, human. As for the experimental part: as §1
Series [4] relates to A549 lung cancer cell line. Kind of series: In vitro anticancer activity, MTT assay. The format is cell-based, human. Conditions: for in-vitro cytotoxicity in lung cancer cell line (A549): result in words. As for the experimental part:
as §1

In series [5] the test system is PC-3 prostrate cancer cell line. Kind of series: In vitro anticancer activity, MTT assay. The format is cell-based, human. The note with it: for IC50: prostrate cancer cell line, MTT, 48 h continuous drug exposure; for in-vitro cytotoxicity in prostrate cancer cell line (PC-3): result in words. The protocol:
as §1

The subject of series [6] is IEC-6 small intestine cell line. Kind of series: In vitro anticancer activity, MTT assay. In kind it is cell-based. The note with it: for in-vitro cytotoxicity in small intestine cancer cell line (IEC-6): result in words. The protocol:
as §1

Series [7] concerns L-6 skeletal cancer cell line. Kind of series: In vitro anticancer activity, MTT assay. The format is cell-based. Conditions: result in words. The protocol: as §1
In series [8] the test system is COS-1 kidney cancer cell line. Kind of series: In vitro anticancer activity, MTT assay. In kind it is cell-based. The note with it: for in-vitro cytotoxicity in kidney cancer cell line (COS-1): result in words; for IC50: COS-1, range over the listed compounds, exposure period of at least 48 hrs, read-out: IC50 against kidney cancer cell lines. The protocol:
as §1

The subject of series [9] is L-6. Kind of series: In vitro anticancer activity, MTT assay. The format is cell-based. Conditions: skeletal cancer cell line; MTT, 48 h continuous drug exposure. As for the experimental part: as §1
The nature of series [10]: In vitro anticancer activity, MTT assay. In kind it is cell-based. The note with it: kidney cancer cell line, MTT, 48 h continuous drug exposure. As for the experimental part:
as §1

For series [11], the system named is calf thymus DNA (CT-DNA). Kind of series: Thermal denaturation studies with duplex-form calf thymus DNA. The format is binding. The note with it: [PND]/[DNA] molar ratio 1:5, CT-DNA 100 μM, ligand 20 μM, aqueous sodium phosphate buffer pH 7; for ΔTm after incubation at 37° C. for 0 hr: 0 hr at 37° C.; for ΔTm after incubation at 37° C. for 18 hrs: 18 hrs at 37° C. The protocol: Compounds have been subjected to thermal denaturation studies with duplex-form calf thymus DNA (CT-DNA) using an modification of a reported procedure (Newman, M. S. Carcinog-compr. Surv. 1976, 1, 203; (b) Hecht, S. S.; Loy, M.; Hoffman, Carcinog-compr. Surv. 1976, 1, 325). Working solutions in aqueous buffer (10 mM NaH2PO4/Na2HPO4, 1 mM Na2EDTA, pH 7.00+0.01) containing CT-DNA (100 μm in phosphate) and the PND (pyrrolo naphtha diazepine) (20 μm) have been prepared by addition of concentrated PND (pyrrolo naphtha diazepine) solutions in DMSO to obtain a fixed [PND]/[DNA] molar ratio of 1:5. The DNA-PND (pyrrolo naphtha diazepine) solutions have been incubated at 37° C. for 0 and 18 h prior to analysis. Samples have been monitored at 260 nm using a Beckman DU-800 spectrophotometer fitted with high performance temperature controller, and heated at 1° C. min in the 40-110° C. range. DNA helix→coil transition temperatures (Tm) have been obtained from the maxima in the d(A260)/dT derivative plots. Drug-induced alterations in DNA melting behavior are given by: ΔTm=Tm(DNA+PND)−Tm(DNA alone), where the Tm value for the PND-free CT-DNA is 69.1±0.01.
The DNA binding activity for these novel substituted piperazine linked pyrrolo naphtho diazepine hybrids has been examined by thermal denaturation studies using calf thymus (CT) DNA. […] The data for some of the compounds are included in Table 1 for comparison.

[12] abbreviates: liver cancer cell line, MTT, 48 h continuous drug exposure, read-out: IC50 HEPG2.
Setting [13] is: lung cancer cell line, MTT, 48 h continuous drug exposure, read-out: IC50 A549.
[14] abbreviates: small intestine cell line, MTT, 48 h continuous drug exposure, read-out: IC50 IEC-6.
[15] abbreviates: Homo sapiens, HepG2, liver cancer cell line, MTT, 48 h continuous drug exposure, read-out: IC50 HEPG2.
Setting [16] is: Homo sapiens, HepG2, range over the listed compounds, exposure period of at least 48 hrs, read-out: IC50 against liver cancer cell lines.
Setting [17] is: Homo sapiens, A549, lung cancer cell line, MTT, 48 h continuous drug exposure, read-out: IC50 A549.
Where [18] appears, read: Homo sapiens, A549, range over the listed compounds, exposure period of at least 48 hrs, read-out: IC50 against lung cancer cell lines.
Setting [19] is: IEC-6, range over the listed compounds, exposure period of at least 48 hrs, read-out: IC50 against small intestine cancer cell lines.
The mark [20] stands for this setting: IEC-6, small intestine cell line, MTT, 48 h continuous drug exposure, read-out: IC50 IEC-6.

For orientation: IC50 means the concentration at which inhibition is half-maximal. In the case of `COc1cc2cc3c(cc2cc1OCCN1CCN(c2ccccc2)CC1)N=C[C@@H]1CCCN1C3=O` [8a, 8-Methoxy-9-[2-(4-phenylpiperazino)ethoxy]-(13aS)-1,2,3,13a-tetrahydro-5H-pyrrolo[2,1-c][1,4]naphthodiazepin-5-one], the IC50 was determined as 430 nM in series [1]; 1500 nM in series [2]; 470 nM in series [3] (setting [12]); 7420 nM in [4] (setting [13]); 1600 nM in series [5]; 140 nM in [6] (setting [14]). Moreover, the IC50 came out at 1010 nM in series [9] and 6390 nM in series [10] (read-out: IC50 COS-1). For the same compound, the “in-vitro cytotoxicity in large cell lung cancer cell line (NCIH460)” value (“in-vitro cytotoxicity … (NCIH460)” below) in series [1] was “exhibiting in-vitro cytotoxicity”. Moreover, in series [2], the “in-vitro cytotoxicity in breast cancer cell line (MCF-7)” value (from here on “in-vitro cytotoxicity … (MCF-7)”) was “exhibiting in-vitro cytotoxicity”. Further, the “in-vitro cytotoxicity in liver cancer cell line (HEPG2)” value (“in-vitro cytotoxicity … (HEPG2)” below) in [3] was “exhibiting in-vitro cytotoxicity”. Also, in [4], the “in-vitro cytotoxicity in lung cancer cell line (A549)” value (from here on “in-vitro cytotoxicity … (A549)”) was “exhibiting in-vitro cytotoxicity”. In addition, the “in-vitro cytotoxicity in prostrate cancer cell line (PC-3)” value (“in-vitro cytotoxicity … (PC-3)” for short) in series [5] is given as “exhibiting in-vitro cytotoxicity”. In addition, the “in-vitro cytotoxicity in small intestine cancer cell line (IEC-6)” value (from here on “in-vitro cytotoxicity … (IEC-6)”) in series [6] is reported as “exhibiting in-vitro cytotoxicity”. The “in-vitro cytotoxicity in skeletal cancer cell line (L-6)” value (“in-vitro cytotoxicity … (L-6)” for short) in [7] is listed as “exhibiting in-vitro cytotoxicity”. In addition, the “in-vitro cytotoxicity in kidney cancer cell line (COS-1)” value (“in-vitro cytotoxicity … (COS-1)” below) in series [8] is listed as “exhibiting in-vitro cytotoxicity”. In [11], the “ΔTm after incubation at 37° C. for 0 hr” value stood at 5.1 °C. The “ΔTm after incubation at 37° C. for 18 hrs” value (shortened to “ΔTm … for 18 hrs”) in series [11] stood at 6.9 °C.
In the case of `COc1cc2cc3c(cc2cc1OCCN1CCN(c2ccccc2)CC1)C(=O)N1CCC[C@H]1C=N3` [19a, 9-Methoxy-8-[2-(4-phenylpiperazino)ethoxy]-(3aS)-1,2,3,13a-tetrahydro-5H-pyrrolo[2,1-c][1,4]naphthodiazepin-5-one], the concentration for half-maximal inhibition (IC50) in [1] (Homo sapiens, NCI-H460) is 6 nM; in [2] (Homo sapiens, MCF7) it was 180 nM; in series [3] (setting [15]) it was 40 nM; in series [3] (setting [16]) it was 20 to 7320 nM; in series [4] (setting [17]), 9900 nM; in series [4] (setting [18]) it was 20 to 11900 nM. Besides, the IC50 is 300 nM in series [5] (Homo sapiens); 10 to 5840 nM in series [6] (setting [19]); 10 nM in [6] (setting [20]); 800 to 4320 nM in [8]; 260 nM in series [9]; 800 nM in [10] (COS-1). In addition, the “in-vitro cytotoxicity … (NCIH460)” value in [1] is recorded as “exhibiting in-vitro cytotoxicity”. In addition, the “in-vitro cytotoxicity … (MCF-7)” value in series [2] was “exhibiting in-vitro cytotoxicity”. Also, in series [3], the “in-vitro cytotoxicity … (HEPG2)” value is on record as “exhibiting in-vitro cytotoxicity”. In series [4], the “in-vitro cytotoxicity … (A549)” value is recorded as “exhibiting in-vitro cytotoxicity”. Moreover, the “in-vitro cytotoxicity … (PC-3)” value in [5] is given as “exhibiting in-vitro cytotoxicity”. Moreover, the “in-vitro cytotoxicity … (IEC-6)” value in series [6] is reported as “exhibiting in-vitro cytotoxicity”. Moreover, the “in-vitro cytotoxicity … (L-6)” value in series [7] was “exhibiting in-vitro cytotoxicity”. In [8], the “in-vitro cytotoxicity … (COS-1)” value was “exhibiting in-vitro cytotoxicity”. The “ΔTm after incubation at 37° C. for 0 hr” value in [11] was determined as 6.5 °C. Besides, in series [11], the “ΔTm … for 18 hrs” value stood at 7.3 °C.
On to `CCN1CCN(CCOc2cc3cc4c(cc3cc2OC)N=C[C@@H]2CCCN2C4=O)CC1` [15a, 9-Methoxy-8-[2-(4-ethylpiperazino)ethoxy]-(13aS)-1,2,3,13a-tetrahydro-5H-pyrrolo[2,1-c][1,4]naphthodiazepin-5-one], for which the IC50 is 1250 nM in series [1] (Homo sapiens, NCI-H460); 40 nM in [2] (Homo sapiens, MCF7); 200 nM in [3] (setting [15]); 20 to 7320 nM in series [3] (setting [16]); 540 nM in series [4] (setting [17]); 20 to 11900 nM in series [4] (setting [18]). In addition, the IC50 is 410 nM in series [5] (Homo sapiens); 10 to 5840 nM in series [6] (setting [19]); 130 nM in [6] (setting [20]); 800 to 4320 nM in [8]; 1870 nM in series [9]; 3660 nM in [10] (COS-1). Besides, in [1], the “in-vitro cytotoxicity … (NCIH460)” value is “exhibiting in-vitro cytotoxicity”. The “in-vitro cytotoxicity … (MCF-7)” value in [2] was “exhibiting in-vitro cytotoxicity”. For the same compound, the “in-vitro cytotoxicity … (HEPG2)” value in [3] is reported as “exhibiting in-vitro cytotoxicity”. In addition, the “in-vitro cytotoxicity … (A549)” value in series [4] is reported as “exhibiting in-vitro cytotoxicity”. Also, the “in-vitro cytotoxicity … (PC-3)” value in series [5] is recorded as “exhibiting in-vitro cytotoxicity”. In series [6], the “in-vitro cytotoxicity … (IEC-6)” value is given as “exhibiting in-vitro cytotoxicity”. For the same compound, the “in-vitro cytotoxicity … (L-6)” value in series [7] was “exhibiting in-vitro cytotoxicity”. Further, in series [8], the “in-vitro cytotoxicity … (COS-1)” value is recorded as “exhibiting in-vitro cytotoxicity”. For the same compound, the “ΔTm after incubation at 37° C. for 0 hr” value in series [11] amounted to 6.1 °C. The “ΔTm … for 18 hrs” value in series [11] was 7.2 °C.
With `COc1cc2cc3c(cc2cc1OCCN1CCN(Cc2ccc4c(c2)OCO4)CC1)N=C[C@@H]1CCCN1C3=O` [7a, 8-Methoxy-9-(2-[4-(1,3-benzodioxol-5-ylmethyl)piperazino]ethoxyl)(13aS)-1,2,3,13a-tetrahydro-5H-pyrrolo[2,1-c][1,4]naphthodiazepin-5-one], the IC50 in series [1] is 80 nM; in [2], 200 nM; in series [3] (setting [12]), 110 nM; in [4] (setting [13]), 2210 nM; in series [5], 640 nM; in series [6] (setting [14]), 50 nM. Also, the IC50 in series [9] came to 770 nM; in series [10] (read-out: IC50 COS-1) it was 2580 nM. Besides, the “in-vitro cytotoxicity … (NCIH460)” value in series [1] is listed as “exhibiting in-vitro cytotoxicity”. Also, the “in-vitro cytotoxicity … (MCF-7)” value in series [2] is given as “exhibiting in-vitro cytotoxicity”. The “in-vitro cytotoxicity … (HEPG2)” value in [3] is recorded as “exhibiting in-vitro cytotoxicity”. Also, in series [4], the “in-vitro cytotoxicity … (A549)” value is “exhibiting in-vitro cytotoxicity”. The “in-vitro cytotoxicity … (PC-3)” value in series [5] was “exhibiting in-vitro cytotoxicity”. For the same compound, the “in-vitro cytotoxicity … (IEC-6)” value in [6] is “exhibiting in-vitro cytotoxicity”. Also, the “in-vitro cytotoxicity … (L-6)” value in [7] is “exhibiting in-vitro cytotoxicity”. For the same compound, the “in-vitro cytotoxicity … (COS-1)” value in series [8] was “exhibiting in-vitro cytotoxicity”. In [11], the “ΔTm after incubation at 37° C. for 0 hr” value is 4.9 °C. The “ΔTm … for 18 hrs” value in series [11] is 6.5 °C.
